Patent publication US10858425B2, “Pan-ELR+ CXC chemokine antibodies” (Eli Lilly and Company, priority 2013, dated 2020)

Experiments:
[1] = target: T1, human CXCR2 (U937-huCXCR2 cells) (Homo sapiens, UniProt P25025); experiment: U937-huCXCR2 FLIPR activity of human CXCL8 wild type and mutants; format: cell-based; conditions: CXCL8 variant as ligand on U937-huCXCR2 cells
T1 construct: expressed in transfected cells; host or cells: U937 monocytic cell line, retrovirally transduced
T1 sequence (P25025 1-360): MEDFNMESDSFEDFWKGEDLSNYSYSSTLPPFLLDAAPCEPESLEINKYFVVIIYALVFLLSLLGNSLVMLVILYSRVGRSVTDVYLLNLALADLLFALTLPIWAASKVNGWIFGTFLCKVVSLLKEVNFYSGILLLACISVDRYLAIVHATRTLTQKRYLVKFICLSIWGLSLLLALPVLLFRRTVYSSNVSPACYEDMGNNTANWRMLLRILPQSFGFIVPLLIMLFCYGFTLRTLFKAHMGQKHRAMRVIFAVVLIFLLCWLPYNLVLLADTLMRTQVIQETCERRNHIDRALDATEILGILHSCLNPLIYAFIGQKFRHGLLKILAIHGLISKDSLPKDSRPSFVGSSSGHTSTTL
Method: Wild type and mutant human CXCL8 are tested for biologic activity and for neutralization by Antibody 1 using the U937-huCXCR2 assay. U937-huCXCR2 is a monocytic cell line transduced with retrovirus for expression of human CXCR2. A description of the U937-huCXCR2 assay is found below under Neutralizing Assays.
CXCL8 mutants are serially diluted in Assay Buffer containing 0.2% BSA in wells of v-bottom 96-well polypropylene plates. Ligand concentrations are 3 times the final assay concentration (final assay concentrations range from 300 to 0.0051 nM). A cell plate and a ligand plate are loaded into a Fluorescent Imaging Plate Reader (FLIPR-3, Molecular Devices) programmed to transfer 50 μL of ligand to wells of the cell plate. Fluorescence is recorded at 1 second intervals for 90 seconds. The change in fluorescence [delta relative fluorescence units (DRFU), Max RFU-Min RFU] is calculated from images 10 to 90. DRFU versus log (ligand concentration) is plotted and EC50 values are determined by nonlinear regression using Graph Pad Prism. Assays are performed in triplicate over three assay plates.

[2] = test system: SKOV3-Luc ovarian cancer cells; experiment: SKOV3-Luc ovarian cancer xenograft model; format: in vivo, athymic nude female mice
Method: SKOV3-Luc is a human ovary cancer cell line that expresses firefly luciferase gene. SKOV3-Luc cells are often used in vivo to establish human ovarian adenocarcinoma tumor growth.
SKOV3-Luc ovarian cancer cells were mixed 1:1 with matrigel and implanted subcutaneously in the right rear flank of athymic nude female mice at 3.0×10^6 cells per injection. Mice were randomized into 4 groups at baseline according to tumor volume after the xenografts were grown to an average tumor volume of 200 mm^3. Mice received either control IgG4 antibody (2.5 mg/kg once a week), cisplatin (2.5 mg/kg once a week), Antibody 1 (20 mg/kg once a week), or a combination of cisplatin (2.5 mg/kg once a week) and Antibody 1 (20 mg/kg once a week) by intraperitoneal injection.

“I10A: human CXCL8 point mutant I10A based on SEQ ID NO: 27 [Antibody I10A]” was tested. Which “U937 FLIPR activity EC50” value [1] did it give?
Its value is “Not Active”.

“R6A: human CXCL8 point mutant R6A based on SEQ ID NO: 27 [Antibody R6A]” was tested. Which “U937 FLIPR activity EC50” value [1] did it give?
Its value is “Not Active”.

Which “U937 FLIPR activity EC50” value [1] does the source give for “I40A: human CXCL8 point mutant I40A based on SEQ ID NO: 27 [Antibody I40A]” here?
Its value is “Not Active”.

Which results are given for N.N.[Cl][Pt][Cl] [Cisplatin, cisplatin]?
Average Tumor Volume ([2]; Day 14): 122.65 mm^3; Average Tumor Volume ([2]; Day 19): 190.65 mm^3; Average Tumor Volume ([2]; Day 22): 289.15 mm^3; Average Tumor Volume ([2]; Day 26): 484.72 mm^3; Average Tumor Volume ([2]; Day 32): 806.31 mm^3; Average Tumor Volume ([2]; Day 35): 923.02 mm^3; Average Tumor Volume ([2]; Day 40): 941.42 mm^3; Average Tumor Volume ([2]; Day 43): 1047.34 mm^3; tumor growth inhibition ([2]; compared to isotype control, intraperitoneal, once a week): did not show statistically significant tumor growth inhibition
